Test results from article PMC12516379, “Rotamer-Controlled Self-Immolative Linkers Enable Tunable Release of Neurosteroid Oxime Prodrugs” (ACS Medicinal Chemistry Letters, 2025).

Legend:
[1] = Stability in acetate buffer pH 5.0 at room temperature via HPLC (UV); format: physicochemical
Protocol: (§1) Stability studies were conducted in PBS and acetate buffer utilizing high performance liquid chromatography for potential drug storage considerations. […]
(§2) All experiments were performed in duplicate and results are presented as the average of two experimental replicates.
(§3) 1.1 Aqueous Stability in PBS and Acetate Buffer via HPLC
(§4) Material and Instrumentation
(§5) HPLC grade acetonitrile (MeCN) […] HPLC grade water (H 2O), and formic acid (FA) were purchased from Fisher Scientific.
(§6) Puradisc 4 mm PTFE (0.45 μm) syringe filters from Cytiva. Gibco ® Dulbecco’s phosphate-buffered saline (DPBS 1X, no calcium, no magnesium, pH = 7.03) and acetate buffer (pH = 5.0, 10 mM) were purchased directly from Thermo Fisher Scientific and Cytiva, respectively.
(§7) Aqueous stability experiments were performed on an Agilent 1100 HPLC equipped with an Agilent G1315B diode array detector, an Agilent G1316A heated column compartment, and a Zorbax Eclipse XDB-C18 (4.6 x 150 mm, 5 μm) column.
(§8) Procedure for Aqueous Stability Experiments
(§9) Each sample was first weighed out in two separate 2.0 mL vials using an analytical balance.
(§10) Unless otherwise specified, the test compounds were then dissolved in the aqueous media (PBS or acetate buffer) at a standard concentration of 1 mg/mL. All mixtures were subsequently sonicated for approximately 30 sec. […]
(§11) min), precipitates observed in sample solutions were filtered with a PTFE syringe filter prior to analysis. Immediately after sample preparation, injection by the HPLC autosampler was performed, which was recorded as the initial time point (t = 0 min). Solutions were then kept in the autosampler at RT and reinjected at designated intervals without additional filtration or sample modification. Remaining prodrug was defined by the area under the curve (AUC) at 254 nm. Aqueous stability was ascertained by calculating the percentage of the parent compound remaining after each time point. Linear regression of the time (x-axis) vs. ln(%remaining) (y-axis) plot afforded the rate constant k (slope = -k). Pseudo first-order half-lives were then calculated by the following equation: t1/2 = 0.693/k.

[2] = Stability in PBS at room temperature via HPLC (UV); format: physicochemical; conditions: phosphate-buffered saline (DPBS)
Protocol: as §1, §2, §3, §4, §5, §6, §7, §8, §9, §10, §11

[3] = PBS stability assay at 37 °C via LC-MS/MS; format: physicochemical; conditions: for half-life at 3 µM / remaining at 2 h, 3 µM: phosphate-buffered saline (DPBS); for half-life at 3 µM: pH 7.03, PBS; for PBS, 37 °C %rem. at 2h (Table S23) / half-life at 3 µM / remaining at 2 h, 3 µM: 37 °C; for remaining at 2 h, 3 µM: pH 7.03, read-out: % Remaining @ 2h, PBS, 37 °C (Tables S25, S26); for PBS, 37 °C %rem. at 2h (Table S23) / remaining at 2 h, 3 µM / Prodrug stability / self-immolation in buffer, in words: PBS
Protocol: To address this, prodrug stability was further evaluated in human plasma at 37 °C using liquid chromatography–tandem mass spectrometry (LC-MS/MS). For direct comparison, a parallel screen was conducted in PBS under identical conditions (Table ). To prevent premature degradation prior to LC-MS/MS analysis, acetonitrile containing formic acid was used as a quenching solution to acidify and stabilize the prodrugs in vials. […] This limitation in detection, along with the need for a more uniform and broadly applicable assessment across all compounds, prompted us to monitor the formation of the parent oxime as an alternative readout.
Stability experiments in human plasma and PBS were performed via liquid chromatography-tandem mass spectrometry (LC-MS/MS) to determine and compare rate of cleavage of progesterone prodrugs as well as selected allopregnanolone prodrugs (3 µM) when incubated at 37 °C. All experiments were performed in duplicate and results are presented as the average of two experimental replicates.

[4] = Plasma stability assay at 37 °C via LC-MS/MS, human plasma; format: in vitro ADME; conditions: for half-life at 3 µM: human, plasma;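 on all read-outs here: prodrugs at 3 µM incubated in human plasma at 37 °C, intact prodrug quantified by LC-MS/MS over time, values are means of duplicate runs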
[5] = Aqueous solubility by visual inspection in acetate buffer (pH 5); conditions: for solubility: sodium acetate buffer, pH 5, aqueous buffer, thermodynamic from solid
Protocol: For the solubility assessment, acetate buffer (pH 5) was selected as the media of choice to ensure prodrug stability during analysis.
High aqueous solubility was determined by visual inspection of 5 mg solid material in 0.5 mL
sodium acetate buffer solution. This media was selected to ensure stability of prodrugs during
dissolution in 50 mg/mL aqueous media.

[6] = pH 5, acetate buffer pH 5.0, RT, 1 mg/mL, HPLC 254 nm, read-out: t1/2 in acetate buffer at RT (Tables S5-S8) (converted)
[7] = pH 5, acetate buffer pH 5.0, rt, HPLC (UV), read-out: Half-life (t½) pH 5.0 rt (converted)
[8] = pH 5, acetate buffer pH 5.0, rt, read-out: t½: pH 5.0, rt (Table S23) (converted)
[9] = pH 7.03, DPBS pH 7.03, RT, 1 mg/mL, HPLC 254 nm, read-out: t1/2 in PBS buffer at RT (Tables S1-S4) (converted)
[10] = pH 7.03, PBS, rt, HPLC (UV), read-out: Half-life (t½) PBS rt (converted)
[11] = pH 7.03, PBS, rt, read-out: t½: PBS, rt (Table S23) (converted)
[12] = 3 µM, LC-MS/MS, read-out: t1/2 in PBS at 37 °C (Tables S14-S17) (converted)
[13] = LC-MS/MS, read-out: Half-life (t½) PBS 37°C (converted)
[14] = read-out: PBS, 37 °C t½ (Table S23) (converted)
[15] = read-out: t1/2 (h) PBS, 37 °C (Tables S25, S26) (converted)
[16] = 3 µM, LC-MS/MS, read-out: t1/2 in human plasma at 37 °C (Tables S10-S13, S18) (converted)
[17] = LC-MS/MS, read-out: Half-life (t½) Plasma 37°C (converted)
[18] = read-out: Plasma, 37 °C t½ (Table S23) (converted)

SMILES	half-life at 1 mg/mL [1, 6] [h]	half-life at 1 mg/mL [1, 7] [h]	half-life at 1 mg/mL [1, 8] [h]	half-life at 1 mg/mL [2, 9] [h]	half-life at 1 mg/mL [2, 10] [h]	half-life at 1 mg/mL [2, 11] [h]	PBS, 37 °C %rem. at 2h (Table S23) [3] [%]	half-life at 3 µM [3, 12] [h]	half-life at 3 µM [3, 13] [h]	half-life at 3 µM [3, 14] [h]	half-life at 3 µM [3, 15] [h]	remaining at 2 h, 3 µM [3] [%]	Plasma, 37 °C %rem. at 2h (Table S23) [4]	half-life at 3 µM [4, 16] [h]	half-life at 3 µM [4, 17] [h]	half-life at 3 µM [4, 18] [h]	solubility [5] [µg/mL]	further results
CNCCN(C(=O)O/N=C(\C)[C@H]1CC[C@H]2[C@@H]3CCC4=CC(=O)CC[C@]4(C)[C@H]3CC[C@]12C)C(C)C.O=C(O)C(F)(F)F [20c]	> 168	> 168	> 168	19.7 ± 0.38	19.7	19.7	53	3.27	3.27	3.27	3.27	53	47%	1.59	1.59	1.59	> 10000	–
CNCCN(C(=O)O/N=C(\C)[C@H]1CC[C@H]2[C@@H]3CCC4=CC(=O)CC[C@]4(C)[C@H]3CC[C@]12C)C1CCC1.O=C(O)C(F)(F)F [20d]	> 168	> 168	> 168	11.8 ± 0.51	11.8	11.8	44	2.32	2.32	2.32	2.32	44	59%	2.67	2.67	2.67	> 10000	–
CNCCN(C(=O)O/N=C(\C)[C@H]1CC[C@H]2[C@@H]3CCC4=CC(=O)CC[C@]4(C)[C@H]3CC[C@]12C)C1CCCC1.O=C(O)C(F)(F)F [20e]	> 168	> 168	> 168	10.7 ± 0.15	10.7	10.7	34	1.74	1.74	1.74	1.74	34	76%	4.02	3.09	4.02	> 10000	–
CNCCN(CCN1CCOCC1)C(=O)O/N=C(\C)[C@H]1CC[C@H]2[C@@H]3CCC4=CC(=O)CC[C@]4(C)[C@H]3CC[C@]12C.O=C(O)C(F)(F)F [20j]	99.4	99.4	99.4	21.77 ± 0.19	21.8	21.8	–	–	–	–	–	–	–	–	–	–	> 10000	–
C/C(=N\OC(=O)N(C)[C@H](C)[C@@H]1CCCN1)[C@H]1CC[C@H]2[C@@H]3CCC4=CC(=O)CC[C@]4(C)[C@H]3CC[C@]12C.O=C(O)C(F)(F)F [20p]	–	–	–	–	–	–	–	0.61	–	–	–	–	–	–	–	–	–	Prodrug stability / self-immolation in buffer, in words [3]: unstable compound; t1/2 in human plasma at 37 °C (Tables S10-S13, S18) ([4]; 3 µM, LC-MS/MS): unstable during; Stability in aqueous media during solubility assessment, in words ([5]; aqueous media (acetate buffer)): poor stability
CNC1(CN(C)C(=O)O/N=C(\C)[C@H]2CC[C@H]3[C@@H]4CCC5=CC(=O)CC[C@]5(C)[C@H]4CC[C@]23C)CC1 [20s]	–	–	–	–	–	–	93	18.5	–	18.5	–	–	stable	> 24	–	> 24	> 10000	Prodrug stability / self-immolation in buffer, in words [3]: complete inhibition of cyclization; Half-life (t½) Plasma 37°C ([4]; LC-MS/MS): stable
C/C(=N\OC(=O)N(CCN)CCN)[C@H]1CC[C@H]2[C@@H]3CCC4=CC(=O)CC[C@]4(C)[C@H]3CC[C@]12C [20w]	> 168	–	> 168	10.1 ± 0.41	–	10.1	–	–	–	–	–	–	–	–	–	–	> 10000	–
